Results: DBAASP
Converted amounts (≈) assume the structure as drawn. Values belong to the compound of their own block, whether it stands above or below them.

Assays:
Assay in all cases: ≥ marks a high value that may be exact or a test limit, other limits are often not marked, values filed in µg/mL are converted to µM
[1] = test system: Bacillus subtilis KCTC 1021
Candida albicans = test system: Candida albicans
[2] = test system: Escherichia coli DH5alpha
Escherichia coli = test system: Escherichia coli
[3] = test system: Klebsiella pneumoniae ATCC 10031
[4] = test system: Micrococcus luteus ATCC 4698
[5] = test system: Proteus mirabilis ATCC 25933
[6] = test system: Pseudomonas aeruginosa ATCC 9027
Pseudomonas putida = test system: Pseudomonas putida
Saccharomyces cerevisiae = test system: Saccharomyces cerevisiae
[7] = test system: Salmonella enterica subsp. enterica serovar Typhimurium ATCC 14028
Serratia marcescens = test system: Serratia marcescens
[8] = test system: Shigella dysenteriae ATCC 9752
[9] = test system: Staphylococcus epidermidis ATCC 12228
[10] = test system: Candida albicans ATCC 90028
[11] = test system: Enterobacter cloacae HNTCC 53001
[12] = test system: Enterococcus faecalis ATCC 29212
[13] = test system: Escherichia coli ATCC 25922
[14] = test system: Klebsiella pneumoniae KK3 9904
[15] = test system: Pseudomonas aeruginosa ATCC 27853
[16] = test system: Staphylococcus aureus NCTC 8325
[17] = test system: Staphylococcus aureus T7/20
[18] = test system: Staphylococcus epidermidis RP62A
Bacillus megaterium Bm11 = test system: Bacillus megaterium Bm11
Candida tropicalis = test system: Candida tropicalis
Mammaliicoccus lentus = test system: Mammaliicoccus lentus
Micrococcus luteus = test system: Micrococcus luteus
[19] = test system: Phytophthora nicotianae PG344
Enterococcus faecalis = test system: Enterococcus faecalis
Escherichia coli W3110 = test system: Escherichia coli W3110
[20] = test system: Pseudomonas aeruginosa PAK
Staphylococcus aureus = test system: Staphylococcus aureus
[21] = test system: Streptococcus gordonii Challis DL1
[22] = test system: Streptococcus mitis ATCC 903
[23] = test system: Streptococcus mutans UA159
[24] = test system: Streptococcus sanguinis NY101
[25] = test system: Streptococcus sobrinus ATCC 33478

MIC [1]: 3.83 µM (≈ 9.99 µg/mL)
MIC (Candida albicans): 19.2 µM (≈ 50 µg/mL)
MIC [2]: 9.58 µM (≈ 25 µg/mL)
MIC (Escherichia coli): 38.3 µM (≈ 99.9 µg/mL)
MIC [3]: 9.58 µM (≈ 25 µg/mL)
MIC [4]: 0.958 µM (≈ 2.5 µg/mL)
MIC [5]: ≥ 76.6 µM
MIC [6]: 57.5 µM (≈ 150 µg/mL)
MIC (Pseudomonas putida): ≥ 57.5 µM
MIC (Saccharomyces cerevisiae): 19.2 µM (≈ 50 µg/mL)
MIC [7]: 19.2 µM (≈ 50 µg/mL)
MIC (Serratia marcescens): ≥ 76.6 µM
MIC [8]: 19.2 µM (≈ 50 µg/mL)
MIC [9]: 3.83 µM (≈ 9.99 µg/mL)
SMILES: CC[C@H](C)[C@@H]1NC(=O)[C@H](CCCCN)NC(=O)[C@@H](NC(=O)[C@@H](NC(=O)[C@@H](NC(=O)[C@@H](NC(=O)[C@@H]2CCCN2C(=O)[C@H](CC(C)C)NC(=O)[C@H](Cc2ccccc2)NC(=O)[C@H](CC(N)=O)NC(=O)[C@H](C)NC(=O)[C@H](C)NC(=O)[C@H](CC(C)C)NC(=O)CNC(=O)[C@H](C)NC(=O)[C@H](CC(C)C)NC(=O)[C@H](CC(C)C)NC(=O)[C@@H]2CCCN2C(=O)[C@H](CC(C)C)NC(=O)[C@@H](N)Cc2ccccc2)[C@@H](C)O)[C@@H](C)CC)[C@@H](C)CC)CSSC[C@@H](C(=O)O)NC(=O)[C@H](CCCCN)NC(=O)[C@H](Cc2ccc(O)cc2)NC(=O)[C@H](CO)NC1=O [FLPLLAGLAANFLPTIICKISYKC]

MIC [10]: ≥ 100 µM
MIC [11]: 6 µM (≈ 20.2 µg/mL)
MIC [12]: 25 µM (≈ 84 µg/mL)
MIC [13]: 3 µM (≈ 10.1 µg/mL)
MIC [14]: 6 µM (≈ 20.2 µg/mL)
MIC [5]: ≥ 100 µM
MIC [15]: 6 µM (≈ 20.2 µg/mL)
MIC [16]: 12.5 µM (≈ 42 µg/mL)
MIC [17]: 25 µM (≈ 84 µg/mL)
MIC [18]: 12.5 µM (≈ 42 µg/mL)
SMILES: CC[C@H](C)[C@H](NC(=O)CN)C(=O)N[C@@H](CCSC)C(=O)N[C@@H](CO)C(=O)N[C@@H](CC(C)C)C(=O)N[C@@H](Cc1ccccc1)C(=O)N[C@@H](CCCCN)C(=O)NCC(=O)N[C@H](C(=O)N[C@@H](CC(C)C)C(=O)N[C@@H](CCCCN)C(=O)N[C@H](C(=O)N[C@@H](C)C(=O)NCC(=O)N[C@@H](CCCCN)C(=O)N[C@@H](Cc1cnc[nH]1)C(=O)N[C@H](C(=O)N[C@@H](C)C(=O)NCC(=O)N[C@@H](CO)C(=O)N[C@@H](CC(C)C)C(=O)N[C@H](C(=O)N[C@@H](CC(=O)O)C(=O)N[C@@H](CCC(N)=O)C(=O)N[C@@H](CC(C)C)C(=O)N[C@@H](CCCCN)C(=O)N[C@H]1CSSC[C@@H](C(=O)O)NC(=O)CNC(=O)CNC(=O)[C@H]([C@@H](C)O)NC(=O)[C@H]([C@@H](C)CC)NC(=O)[C@H](CCCCN)NC1=O)C(C)C)C(C)C)[C@@H](C)O)C(C)C [GIMSLFKGVLKTAGKHVAGSLVDQLKCKITGGC]

MIC (Bacillus megaterium Bm11): 20 µM (≈ 42.7 µg/mL)
MIC (Candida tropicalis): 11 µM (≈ 23.5 µg/mL)
MIC (Mammaliicoccus lentus): ≥ 50 µM
MIC (Micrococcus luteus): 10 µM (≈ 21.3 µg/mL)
MIC [19]: ≥ 75 µM
SMILES: CC(C)C[C@H](N)C(=O)N[C@H](C(=O)N[C@@H](CCCN=C(N)N)C(=O)NCC(=O)N[C@H]1CSSC[C@@H](C(=O)N[C@@H](Cc2ccccc2)C(=O)N[C@H](C(=O)N[C@@H](CCCN=C(N)N)C(N)=O)C(C)C)NC(=O)[C@@H]2CCCN2C(=O)[C@H](CCCCN)NC(=O)[C@@H]2CCCN2C(=O)[C@@H]2CCCN2C(=O)[C@H](Cc2ccc(O)cc2)NC(=O)[C@H](CO)NC(=O)[C@H](CCCCN)NC(=O)[C@H]([C@@H](C)O)NC(=O)[C@H](Cc2c[nH]c3ccccc23)NC1=O)C(C)C [LVRGCWTKSYPPKPCFVR]

MIC (Enterococcus faecalis): ≥ 338 µM
MIC (Escherichia coli W3110): ≥ 338 µM
MIC [20]: ≥ 338 µM
MIC (Staphylococcus aureus): > 338 µM
MIC [21]: ≥ 338 µM
MIC [22]: ≥ 338 µM
MIC [23]: ≥ 338 µM
MIC [24]: ≥ 338 µM
MIC [25]: ≥ 338 µM
SMILES: NCCCC[C@H](NC(=O)[C@H](Cc1c[nH]c2ccccc12)NC(=O)[C@@H](N)Cc1c[nH]c2ccccc12)C(=O)N[C@@H](CC(=O)O)C(=O)N[C@@H](Cc1c[nH]c2ccccc12)C(=O)N[C@@H](Cc1c[nH]c2ccccc12)C(=O)N[C@@H](CCC(=O)O)C(=O)N[C@@H](CCCN=C(N)N)C(=O)N[C@@H](Cc1c[nH]c2ccccc12)C(N)=O [WWKDWWERW]
